For test [1], the system named is adult male DWB antenna. The test can be described thus: Coupled GC-EAD (electroantennographic detection) of synthetic octadecadienyl acetates. Details: species or system Synanthedon scitula. Conditions: for EAD activity in 10 ng of loading: 10 ng loading, male DWB antenna, footnote: relative to E,Z-2,13-octadecadienyl acetate; for EAD activity / electroantennogram response: male DWB antennae, synthetic standards. From the text: Identification of peaks: 1, ZZ 3,13-ODDA; 2, EZ 2,13-ODDA; and 3, ZE 3,13-ODDA. Electrophysiological. Recordings and Mass Spectrometry: The coupled gas chromatographic-electroantennographic detection (GC-EAD) system used was as previously described (Zhang, A., and S. Polavarapu, J. Chem. Ecol., 29: 2153-2164 (2003); Zhang, A., and S. Polavarapu, J. Chem. Ecol., 30: 1531-1545 (2004); Zhang, A., et al., J. Chem. Ecol., 23: 231-245 (1997)). A Hewlett Packard (HP) 6890 gas chromatograph equipped with a 60 m×0.25-mm i.d., 0.25-mm film-thickness DB-[…] capillary column (J&W Scientific Inc., Folsom, Calif., 120° C. for 2 min, then programmed to 250° C. at 10° C./min and held for 10 min) or a 60 m×0.25-mm i.d., 0.25-mm film-thickness DB-5 capillary column (J&W Scientific Inc., 100° C. for 2 min, then programmed to 250° C. at 15° C./min and held for 10 min) in the splitless mode with hydrogen as carrier (1.4 ml/min) was used for GC-EAD analysis. Electronic impact (EI) gas chromatography-mass spectrometry (GC-MS) was conducted on a Hewlett-Packard 6890 GC coupled to a HP 5973 Mass Selective Detector using an identical DB-[…] capillary column (120° C. for 2 min, then programmed to 230° C. at 15° C./min and held for 25 min for regular analysis, but with helium as carrier gas. A 70 eV electron beam was employed for sample ionization.

The test system of test [2] is male DWB (Synanthedon scitula). The test can be described thus: Field trapping tests with lure-baited sticky traps in apple orchards. It is filed as in vivo. The protocol: Field Trapping Tests: Red natural rubber septa (5 mm, Wheaton, N.J.) loaded with the desired rates of Z,Z-3,13-ODDA and the blends in […] of hexane solution were used for field deployment. The same amount of solvent (hexane) was loaded on the septum for the blank control. After loading, the solvent was allowed to evaporate in a fume hood for 30 min. Lures were then wrapped in aluminum foil, stored in 20 ml plastic vials, and shipped by express carrier on the same day. Upon arrival, the lures were kept in a freezer at −10° C. until deployed. All field tests were conducted in commercial apple fields in WV, VA, and NC using Pherocon 1C or Delta sticky traps (Trécé, Salinas, Calif.). Traps were placed in trees at ˜1.2 m above the ground (Riedi, Fla., et al., Cana. Entomol., 117: 1367-1377 (1985)). At each location, experimental lures were randomized within each of three to five rows (depending on the number of replicates per test) and separated by at least one buffer row, and traps were spaced at a minimum of ˜25 m intervals within a row. Traps were rotated among positions within each row at weekly intervals for the duration of each test. The number of dogwood borer, peachtree borer, lilac borer, and other male Sesiidae moths captured were recorded weekly. In the first comparison trial, the following lures were deployed: the single component (100% Z,Z-3,13 ODDA); the binary blend (Z,Z-3,13-ODDA:E,Z-2,13-ODDA=94:6); a second two-component blend (Z,Z-3,13-ODDA:Z,E-3,13-ODDA=94:6, based on the molar amount of the Z,Z-3,13-octadecadienyl acetate in the composition); the trinary blend (Z,Z-3,13-ODDA:E,Z-2,13-ODDA:Z,E-3,13-ODDA=88:6:6); and control. Next, to evaluate the attractive effect of addition of third component, 0.5, 1, 3, or 10% based on the molar amount of the Z,Z-3,13-octadecadienyl acetate of Z,E-3,13-ODDA were added into the binary blend individually. Similarly, 0.5, 1, 3, or 10% of E,Z-2,13-ODDA were individually added into a blend consisted of Z,Z-3,13-ODDA:Z, E-3,13-ODDA (94:6) to evaluate the effect of E,Z-2,13-ODDA. In another comparison, 0.5, 1, 2, or 3% E,Z-3,13-ODDA was added to the trinary blend. Dose response tests of the trinary and binary blends were deployed in each location, with doses consisting of 10-μg, 100-μg, 300-μg, 1-mg, and 10-mg (trinary blend); and 10-μg, 100-μg, 300-μg, 500-μg, and 1-mg (binary blend), respectively. Caged live virgin females (2-4 days old and 1 female per cage) were deployed in traps to provide a natural source of pheromone for comparison with traps baited with the binary and trinary blends. In a final comparison to determine over what distance DWB can detect the trinary blend, we compared captures in traps baited with the trinary blend deployed within an infested apple orchard, and 50 and […] outside the orchard within a large wood lot habitat.
Statistics: The data on control traps were omitted in the analysis because of zero trap catches. Unless otherwise specified, data on trap catches from each test were logarithm transformed (log χ+1) to normalize the variance before analysis. Means were compared by one-way analysis of variance (ANOVA) followed by Ryan-Einot-Gabriel-Welsch Range test (SPSS 10.0 for Windows, George and Mallery, 2002) for significance at α=0.05.

For test [3], the system named is dogwood borer (DWB). The test can be described thus: Species-specificity of lures: share of dogwood borer in captures. It is filed as in vivo, Synanthedon scitula. Conditions: across all sites; FIG. 10. As to the method: Field Trapping Tests: Red natural rubber septa (5 mm, Wheaton, N.J.) loaded with the desired rates of Z,Z-3,13-ODDA and the blends in […] of hexane solution were used for field deployment. The same amount of solvent (hexane) was loaded on the septum for the blank control. After loading, the solvent was allowed to evaporate in a fume hood for 30 min. Lures were then wrapped in aluminum foil, stored in 20 ml plastic vials, and shipped by express carrier on the same day. Upon arrival, the lures were kept in a freezer at −10° C. until deployed. All field tests were conducted in commercial apple fields in WV, VA, and NC using Pherocon 1C or Delta sticky traps (Trécé, Salinas, Calif.). Traps were placed in trees at ˜1.2 m above the ground (Riedi, Fla., et al., Cana. Entomol., 117: 1367-1377 (1985)). At each location, experimental lures were randomized within each of three to five rows (depending on the number of replicates per test) and separated by at least one buffer row, and traps were spaced at a minimum of ˜25 m intervals within a row. Traps were rotated among positions within each row at weekly intervals for the duration of each test. The number of dogwood borer, peachtree borer, lilac borer, and other male Sesiidae moths captured were recorded weekly. […]

“Also recorded” adds a separate entry of the source.

Regarding `CCCC/C=C\CCCCCCCCC/C=C/COC(C)=O` [(E,Z)-2,13-Octadecadienyl acetate, E,Z-2,13-octadecadienyl acetate], in test [1], the “EAD activity in 10 ng of loading” value is recorded as 0.13 (±1.2% SD, n = 3) mV and the “EAD activity / electroantennogram response” value was “confirmed by synthetic standards”. Further, the “effect on attraction of adding the compound to Z,Z-3,13-ODDA:Z,E-3,13-ODDA (94:6) blend” value in test [2] (0.5 to 10% added, FIG. 4) is on record as “significantly increased”. Besides, the “amount added to 94:6 (Z,Z-3,13-ODDA:Z,E-3,13-ODDA) blend at which captures increased significantly” value in test [2] (all locations, FIG. 4) is given as ≤ 1%.

On to `CCCC/C=C/CCCCCCCCC/C=C/COC(C)=O` [(E,E)-2,13-Octadecadienyl acetate, reference compound], for which, in test [1], the “EAD activity in 10 ng of loading” value is listed as 0.012 (±0.21% SD, n = 3) mV.

As for `CCCC/C=C\CCCCCCCC/C=C\CCOC(C)=O` [(Z,Z)-3,13-Octadecadienyl acetate, Z,Z-3,13-octadecadienyl acetate], in test [3], the “percentage of captures that were male dogwood borers” value was 92-99.6%. Further, in test [1], the “EAD activity in 10 ng of loading” value is recorded as 0.30 (±9.5% SD, n = 3) mV and the “EAD activity / electroantennogram response” value is “confirmed by synthetic standards”. Moreover, the “attraction of male DWB (trap captures), blend comparison” value in test [2] (septa containing 1-mg, NC, VA, WV, FIG. 2, listed as Z,Z-3,13-ODDA) is reported as “surprisingly attractive; also recorded: reliably attract male DWB”.

On to `CCCC/C=C\CCCCCCCC/C=C/CCOC(C)=O` [(E,Z)-3,13-Octadecadienyl acetate, E,Z-3,13-octadecadienyl acetate], for which, in test [1], the “EAD activity in 10 ng of loading” value was 0.30 (±8.7% SD, n = 3) mV and the “EAD activity / electroantennogram response” value is reported as “just as strong an electroantennogram response as Z,Z-3,13-ODDA”. For the same compound, in test [2] (added to trinary blend, FIG. 5, listed as E,Z-3,13-ODDA), the “effect on trap captures of DWB (attraction antagonism)” value was “reduced trap captures of DWB significantly; also recorded: inhibit (antagonize) DWB male response and movement”. The “amount added to trinary blend that significantly inhibited (reduced) trap captures” value in test [2] (all locations, FIG. 5, listed as E,Z-3,13-ODDA) was ≤ 0.5%. Besides, in test [2] (all locations, FIG. 5, listed as E,Z-3 μl 3-ODDA), the “amount added to trinary blend that significantly inhibited (reduced) trap captures” value is listed as 0.5-1%.

As to `CCCC/C=C/CCCCCCCC/C=C\CCOC(C)=O` [(Z,E)-3,13-Octadecadienyl acetate, Z,E-3,13-octadecadienyl acetate], in test [1], the “EAD activity in 10 ng of loading” value was 0.25 (±1.0% SD, n = 3) mV. For the same compound, in test [2] (0.5 to 10% added to binary blend (94:6), FIG. 3, listed as Z,E-3,13-ODDA), the “effect on attraction of adding the compound to the binary blend” value is “did not cause a significant increase in attraction; also recorded: did not observe a similar response”.

Turning to `CCCC/C=C/CCCCCCCCC/C=C\COC(C)=O` [(Z,E)-2,13-Octadecadienyl acetate, reference compound], the “EAD activity in 10 ng of loading” value in test [1] was 0.030 (±0.10% SD, n = 3) mV.

With `CCCC/C=C/CCCCCCCC/C=C/CCOC(C)=O` [(E,E)-3,13-Octadecadienyl acetate, E,E-3,13-octadecadienyl acetate, reference compound], the “EAD activity in 10 ng of loading” value in test [1] is given as 0.12 (±3.5% SD, n = 3) mV.

For the compound `CCCC/C=C\CCCCCCCCC/C=C\COC(C)=O` [(Z,Z)-2,13-Octadecadienyl acetate, reference compound], the “EAD activity in 10 ng of loading” value in test [1] is 0.029 (±0.79% SD, n = 3) mV.
